Test results as given in article PMC6952396, “Structural basis for itraconazole-mediated NPC1 inhibition” (Nature Communications, 2020).
“Also recorded” adds a separate entry of the source.

System: T1, human NPC1
T1 construct: Strep-tag; made in house; host or cells: HEK-293S GnTI- cells (baculovirus-mediated transduction)
Assay: P-X cross-linking to purified NPC1
Assay type: binding
Conditions: for competition with cross-linking of P-X to purified NPC1: 0.3 μM P-X, amphipol-reconstituted NPC1 without detergent, in-gel fluorescence
Experimental: To determine the binding site for itraconazole on NPC1, we expressed and purified the NPC1 protein using n-dodecyl β-D-maltoside (DDM) as the detergent. The protein was then incorporated into amphipol A8-35 and the detergent was removed with bio-beads and further separated by gel filtration in phosphate buffered saline (PBS).
For Cross-Linking of P-X to purified NPC1 protein, each reaction contained 0.5 μg of indicated protein, 0.3 μM P-X, and various amounts of itraconazole in a final volume of 100 μL of buffer containing 50 mM Hepes pH7.5 and 150 mM NaCl with or without 0.1% Digitonin (Calbiochem). After incubation for 1 h at 37 °C, the mixture was subjected to UV cross-linking for 10 min and then tagged with Alexa Fluor 532 by means of copper-catalyzed azide-alkyne cycloaddition (click chemistry)[22],[41]. The reactions were carried out by mixing an aliquot of each mixture (50 μL), in a final volume of 58.5 μL, with 3 μL of 1.7 mM Tris[(1-benzyl-1H-1,2,3-triazol-4-yl) methyl] amine (TBTA), 2 μL of 50 mM CuSO4, 1 μL of 50 mM Tris(2-carboxyethyl) phosphine (TCEP), 1.5 μL 10% SDS and 1 μL of 1.25 mM Alexa Fluor 532 azide. The mixture was incubated at room temperature for 1 h.
To visualize the fluorescent-labeled proteins by in-gel fluorescence, 20 μL. aliquots of each sample were mixed with 4x loading dye and subjected to 8% SDS/PAGE, after which the gels were scanned with a Typhoon image scanner (GE Healthcare; filter setting: excitation, […]; emission, 555 nm; high sensitivity). After scanning the gel, the proteins were transferred to nitrocellulose and blotted with rabbit monoclonal anti-NPC1 as indicated in the figure legends.
Human NPC1 protein was expressed and purified as previously described, except for using Strep-tag instead of His-tag. Briefly, the protein was expressed using baculovirus-mediated transduction of mammalian HEK-293S GnTI^− cells (ATCC, CRL-3022). At 48 h post infection, the cells were disrupted by sonication in buffer B, containing 20 mM Hepes, pH7.5, 150 mM NaCl with 1 mM PMSF and 5 μg/mL leupeptin. After low speed centrifugation, the resulting supernatant was incubated in buffer B with 1% (w/v) DDM for 1 h at 4 °C. The lysate was centrifuged again, and the supernatant was loaded onto a Strep-Tactin affinity column (IBA). After washing twice, the protein was eluted in 20 mM Hepes, pH7.5, 150 mM NaCl, 2.5 mM desthiobiotin, 0.02% DDM and concentrated. The concentrated protein was further purified by Superdex 200 increase column (GE Healthcare) in buffer B with 0.02% DDM. The peak fractions were mixed with amphipol A8-35 (Anatrace) at 1:3 (w/w) for 4 h. Detergent was removed with Bio-Beads (Bio-Rad) overnight and further separation on a Superdex 200 increase column in PBS (Sigma-Aldrich). […]

Row | SMILES | competition with cross-linking of P-X to purified NPC1 | cross-linking of P-X to purified NPC1 (amphipol-reconstituted NPC1 in PBS without detergent) | cross-linking of P-X to purified NPC1 (protein solubilized in digitonin)
1 | CCC(C)n1ncn(-c2ccc(N3CCN(c4ccc(OCC5COC(Cn6cncn6)(c6ccc(Cl)cc6Cl)O5)cc4)CC3)c(Br)c2)c1=O (stereo not shown) [I-Br] | binds to NPC1 in a similar manner to the itraconazole mixture; also recorded: competes | – | –
2 | CCC(C)n1ncn(-c2ccc(N3CCN(c4ccc(OCC5COC(Cn6cncn6)(c6ccc(Cl)cc6Cl)O5)cc4)CC3)cc2)c1=O (stereo not shown) [Itraconazole mixture, itraconazole] | competed | – | –
3 | C#CCOc1ccc(C(=O)c2ccc(C(=O)OC(C)C(CC)n3ncn(-c4ccc(N5CCN(c6ccc(OCC7COC(Cn8cncn8)(c8ccc(F)cc8F)O7)cc6)CC5)cc4)c3=O)cc2)cc1 (stereo not shown) [P-X] | – | can cross-link | not when the protein was solubilized in digitonin
